Values of other authors as cited in patent US20060251722A1, “Multi-component vitamin and mineral supplement for the optimal absorption of components” (Novavax, Inc., priority 2005, published 2006).

Conditions: rat, in vivo, po

## carbonyl iron
  bioavailability relative to other elemental iron forms: 2-5 times
